Source: ChEMBL document CHEMBL5653631, “A Potent and Selective ULK1 Inhibitor Suppresses Autophagy and Sensitizes Cancer Cells to Nutrient Stress” (iScience, 2018)

Columns and labels:
[1] = target: Dual specificity tyrosine-phosphorylation-regulated kinase 1A (Homo sapiens) (UniProt Q13627); assay: Inhibition of human recombinant DYRK1A at 40 nM related to control ULK1
[2] = target: Cyclin-dependent kinase-like 3 (Homo sapiens) (UniProt Q8IVW4); assay: Inhibition of human recombinant CDKL3 at 40 nM related to control ULK1
[3] = target: Calcium/calmodulin-dependent protein kinase type 1D (Homo sapiens) (UniProt Q8IU85); assay: Inhibition of human recombinant CaMK1d at 40 nM related to control ULK1
Sequence of Calcium/calmodulin-dependent protein kinase type 1D (Homo sapiens) (Q8IU85 whole entry, looked up): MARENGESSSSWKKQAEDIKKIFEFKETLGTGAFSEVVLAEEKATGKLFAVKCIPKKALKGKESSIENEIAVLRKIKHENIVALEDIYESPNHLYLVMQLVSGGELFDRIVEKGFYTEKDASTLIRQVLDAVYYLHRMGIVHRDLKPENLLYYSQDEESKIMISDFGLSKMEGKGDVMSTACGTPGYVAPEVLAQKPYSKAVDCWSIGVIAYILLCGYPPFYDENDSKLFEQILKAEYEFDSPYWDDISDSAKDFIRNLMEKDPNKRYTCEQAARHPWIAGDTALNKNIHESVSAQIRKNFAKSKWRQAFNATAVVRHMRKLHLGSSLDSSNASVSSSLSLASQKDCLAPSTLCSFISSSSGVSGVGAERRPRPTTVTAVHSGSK

[4] = target: T1, Tyrosine-protein kinase TXK (Homo sapiens) (UniProt P42681); assay: Inhibition of human recombinant TXK at 40 nM related to control ULK1
T1 sequence (whole entry): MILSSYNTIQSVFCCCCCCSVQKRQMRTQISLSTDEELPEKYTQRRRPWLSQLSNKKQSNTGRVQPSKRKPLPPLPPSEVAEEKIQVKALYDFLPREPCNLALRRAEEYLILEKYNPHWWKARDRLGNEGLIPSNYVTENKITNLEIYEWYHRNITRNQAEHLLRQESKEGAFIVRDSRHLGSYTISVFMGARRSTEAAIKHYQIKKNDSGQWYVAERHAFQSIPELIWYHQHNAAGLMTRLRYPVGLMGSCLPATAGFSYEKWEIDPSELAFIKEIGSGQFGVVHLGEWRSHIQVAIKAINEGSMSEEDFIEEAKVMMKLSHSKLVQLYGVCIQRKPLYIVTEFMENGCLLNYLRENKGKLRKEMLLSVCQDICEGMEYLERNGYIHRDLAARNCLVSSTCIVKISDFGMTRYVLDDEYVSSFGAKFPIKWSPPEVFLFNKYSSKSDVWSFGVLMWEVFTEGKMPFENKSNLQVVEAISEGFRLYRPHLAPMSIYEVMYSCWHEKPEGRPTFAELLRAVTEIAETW

[5] = target: Rho-associated protein kinase 2 (Homo sapiens) (UniProt O75116); assay: Inhibition of human recombinant ROCK2 at 40 nM related to control ULK1
Sequence of Rho-associated protein kinase 2 (Homo sapiens) (O75116 whole entry, looked up): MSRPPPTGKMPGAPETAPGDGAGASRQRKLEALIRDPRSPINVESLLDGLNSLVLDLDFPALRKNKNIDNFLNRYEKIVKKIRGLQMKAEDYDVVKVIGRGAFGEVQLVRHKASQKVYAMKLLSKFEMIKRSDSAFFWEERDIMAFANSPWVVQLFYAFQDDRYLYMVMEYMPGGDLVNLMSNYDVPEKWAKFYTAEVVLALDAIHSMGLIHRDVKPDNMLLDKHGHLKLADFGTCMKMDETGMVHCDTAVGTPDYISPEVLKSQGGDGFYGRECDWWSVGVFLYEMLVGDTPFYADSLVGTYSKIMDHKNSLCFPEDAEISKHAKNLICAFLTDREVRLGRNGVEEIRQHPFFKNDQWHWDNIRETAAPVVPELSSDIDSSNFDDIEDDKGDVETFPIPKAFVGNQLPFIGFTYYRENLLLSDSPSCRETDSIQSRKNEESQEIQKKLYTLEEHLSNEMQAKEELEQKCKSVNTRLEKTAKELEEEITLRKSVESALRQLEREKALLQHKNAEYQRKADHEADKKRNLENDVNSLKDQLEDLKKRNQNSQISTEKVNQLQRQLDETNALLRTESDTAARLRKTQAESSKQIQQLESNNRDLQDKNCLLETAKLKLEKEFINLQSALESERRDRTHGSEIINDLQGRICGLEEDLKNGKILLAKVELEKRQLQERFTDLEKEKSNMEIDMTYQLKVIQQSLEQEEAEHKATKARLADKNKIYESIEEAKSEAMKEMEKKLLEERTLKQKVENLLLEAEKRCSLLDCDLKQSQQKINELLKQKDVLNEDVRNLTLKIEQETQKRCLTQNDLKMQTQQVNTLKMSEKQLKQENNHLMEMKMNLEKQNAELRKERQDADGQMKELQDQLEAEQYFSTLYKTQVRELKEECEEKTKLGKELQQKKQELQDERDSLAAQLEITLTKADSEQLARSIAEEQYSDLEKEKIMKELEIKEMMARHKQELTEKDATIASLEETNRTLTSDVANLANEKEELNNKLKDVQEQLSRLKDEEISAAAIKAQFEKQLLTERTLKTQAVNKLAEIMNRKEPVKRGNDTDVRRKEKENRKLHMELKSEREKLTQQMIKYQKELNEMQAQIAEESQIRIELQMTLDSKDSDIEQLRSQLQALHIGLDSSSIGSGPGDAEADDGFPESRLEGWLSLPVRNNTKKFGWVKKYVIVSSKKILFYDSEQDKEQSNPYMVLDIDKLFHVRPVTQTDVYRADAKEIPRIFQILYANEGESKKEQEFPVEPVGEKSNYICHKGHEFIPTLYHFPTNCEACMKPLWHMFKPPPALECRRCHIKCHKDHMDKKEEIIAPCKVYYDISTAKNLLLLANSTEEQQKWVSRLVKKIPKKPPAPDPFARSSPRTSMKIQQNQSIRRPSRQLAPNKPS

[6] = target: Serine/threonine-protein kinase NIM1 (Homo sapiens) (UniProt Q8IY84); assay: Inhibition of human recombinant NIM1 at 15 nM in presence of ATP by radiometric assay relative to control
Sequence of Serine/threonine-protein kinase NIM1 (Homo sapiens) (Q8IY84 whole entry): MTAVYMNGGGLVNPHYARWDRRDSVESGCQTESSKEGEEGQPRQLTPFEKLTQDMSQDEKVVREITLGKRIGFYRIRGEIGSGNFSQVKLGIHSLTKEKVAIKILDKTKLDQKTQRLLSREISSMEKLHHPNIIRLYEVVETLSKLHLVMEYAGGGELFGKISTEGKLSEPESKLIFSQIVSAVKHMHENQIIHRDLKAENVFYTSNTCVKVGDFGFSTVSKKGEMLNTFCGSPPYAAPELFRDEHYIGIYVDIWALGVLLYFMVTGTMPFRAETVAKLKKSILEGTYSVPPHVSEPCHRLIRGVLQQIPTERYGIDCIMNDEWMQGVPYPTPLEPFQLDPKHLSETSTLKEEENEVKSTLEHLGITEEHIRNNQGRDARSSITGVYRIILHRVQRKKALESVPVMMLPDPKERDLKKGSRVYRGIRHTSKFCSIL

[7] = target: Death-associated protein kinase 3 (Homo sapiens) (UniProt O43293); assay: Inhibition of human recombinant DAPK3 at 15 nM related to control ULK1
[8] = target: Protein kinase C beta type (Homo sapiens) (UniProt P05771); assay: Inhibition of human recombinant PKCb at 500 nM related to control ULK1
[9] = target: Tyrosine-protein kinase FRK (Homo sapiens) (UniProt P42685); assay: Inhibition of human recombinant FRK at 500 nM related to control ULK1
[10] = target: T2, Tyrosine-protein kinase JAK3 (Homo sapiens) (UniProt P52333); assay: Inhibition of human recombinant JAK3 at 500 nM related to control ULK1
T2 sequence (whole entry): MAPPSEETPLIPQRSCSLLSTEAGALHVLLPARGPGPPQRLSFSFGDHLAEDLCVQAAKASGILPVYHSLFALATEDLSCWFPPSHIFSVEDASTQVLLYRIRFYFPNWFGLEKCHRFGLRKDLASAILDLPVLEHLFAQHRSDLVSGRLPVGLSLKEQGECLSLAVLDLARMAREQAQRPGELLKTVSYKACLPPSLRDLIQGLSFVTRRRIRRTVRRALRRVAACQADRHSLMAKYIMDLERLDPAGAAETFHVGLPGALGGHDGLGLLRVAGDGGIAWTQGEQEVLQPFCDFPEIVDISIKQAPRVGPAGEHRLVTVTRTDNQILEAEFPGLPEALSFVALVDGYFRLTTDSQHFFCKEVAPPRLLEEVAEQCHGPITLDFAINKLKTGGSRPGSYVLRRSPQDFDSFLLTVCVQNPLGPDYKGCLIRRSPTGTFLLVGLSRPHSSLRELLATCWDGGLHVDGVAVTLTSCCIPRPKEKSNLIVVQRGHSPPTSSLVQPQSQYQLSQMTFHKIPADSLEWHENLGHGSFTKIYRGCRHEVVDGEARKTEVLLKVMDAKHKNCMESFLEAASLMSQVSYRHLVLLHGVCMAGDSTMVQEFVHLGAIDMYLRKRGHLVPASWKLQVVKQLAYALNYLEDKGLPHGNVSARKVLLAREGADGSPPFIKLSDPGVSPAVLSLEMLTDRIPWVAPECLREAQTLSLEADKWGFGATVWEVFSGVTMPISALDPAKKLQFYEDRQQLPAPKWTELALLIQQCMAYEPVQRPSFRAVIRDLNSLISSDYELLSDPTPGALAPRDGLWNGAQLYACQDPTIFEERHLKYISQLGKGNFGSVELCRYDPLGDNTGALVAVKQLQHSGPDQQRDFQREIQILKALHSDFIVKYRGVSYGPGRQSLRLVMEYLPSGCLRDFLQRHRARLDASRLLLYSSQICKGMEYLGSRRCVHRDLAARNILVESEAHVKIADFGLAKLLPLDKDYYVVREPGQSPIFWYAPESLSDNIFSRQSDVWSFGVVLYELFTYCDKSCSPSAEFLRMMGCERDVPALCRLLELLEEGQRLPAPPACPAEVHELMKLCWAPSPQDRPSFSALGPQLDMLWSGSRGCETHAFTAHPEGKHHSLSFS

[11] = target: Vascular endothelial growth factor receptor 3 (Homo sapiens) (UniProt P35916); assay: Inhibition of human recombinant FLT4 at 500 nM related to control ULK1
Sequence of Vascular endothelial growth factor receptor 3 (Homo sapiens) (P35916 whole entry): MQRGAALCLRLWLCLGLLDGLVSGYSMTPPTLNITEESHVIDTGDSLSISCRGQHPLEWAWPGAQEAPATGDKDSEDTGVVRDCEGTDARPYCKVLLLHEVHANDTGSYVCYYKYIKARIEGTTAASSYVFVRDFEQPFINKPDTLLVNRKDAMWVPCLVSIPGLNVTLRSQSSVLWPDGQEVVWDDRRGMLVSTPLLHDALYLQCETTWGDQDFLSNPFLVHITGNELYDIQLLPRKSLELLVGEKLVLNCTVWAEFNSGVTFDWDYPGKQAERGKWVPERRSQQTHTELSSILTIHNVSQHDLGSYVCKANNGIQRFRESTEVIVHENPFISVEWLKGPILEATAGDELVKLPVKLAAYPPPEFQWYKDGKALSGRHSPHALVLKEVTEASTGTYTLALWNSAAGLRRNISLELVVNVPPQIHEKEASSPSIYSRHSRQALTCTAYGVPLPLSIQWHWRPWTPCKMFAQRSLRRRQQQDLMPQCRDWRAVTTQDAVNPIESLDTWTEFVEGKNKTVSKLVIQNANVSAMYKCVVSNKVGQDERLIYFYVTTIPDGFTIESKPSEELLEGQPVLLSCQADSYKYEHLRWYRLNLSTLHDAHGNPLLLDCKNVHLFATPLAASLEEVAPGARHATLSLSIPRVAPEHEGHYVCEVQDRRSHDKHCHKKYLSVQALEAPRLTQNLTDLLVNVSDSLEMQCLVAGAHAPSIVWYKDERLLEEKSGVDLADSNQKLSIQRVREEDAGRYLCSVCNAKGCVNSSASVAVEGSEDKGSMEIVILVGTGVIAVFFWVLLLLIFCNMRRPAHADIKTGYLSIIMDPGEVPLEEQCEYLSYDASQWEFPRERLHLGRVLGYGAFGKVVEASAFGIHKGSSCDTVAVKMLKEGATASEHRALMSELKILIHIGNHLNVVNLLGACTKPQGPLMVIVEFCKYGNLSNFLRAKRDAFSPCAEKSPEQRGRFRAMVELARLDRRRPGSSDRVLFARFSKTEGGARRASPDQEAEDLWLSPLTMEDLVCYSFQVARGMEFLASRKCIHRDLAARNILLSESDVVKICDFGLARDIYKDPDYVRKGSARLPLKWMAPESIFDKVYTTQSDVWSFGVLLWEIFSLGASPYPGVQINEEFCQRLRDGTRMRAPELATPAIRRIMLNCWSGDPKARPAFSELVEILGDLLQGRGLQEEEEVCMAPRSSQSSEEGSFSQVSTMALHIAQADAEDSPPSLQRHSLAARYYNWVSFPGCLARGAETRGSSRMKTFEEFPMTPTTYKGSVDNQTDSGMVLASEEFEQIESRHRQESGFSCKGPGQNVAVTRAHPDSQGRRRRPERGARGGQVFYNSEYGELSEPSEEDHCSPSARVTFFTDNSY

[12] = target: Rho-associated protein kinase 1 (Homo sapiens) (UniProt Q13464); assay: Inhibition of human recombinant ROCK1 at 500 nM related to control ULK1
Sequence of Rho-associated protein kinase 1 (Homo sapiens) (Q13464 2-1354 limits assumed): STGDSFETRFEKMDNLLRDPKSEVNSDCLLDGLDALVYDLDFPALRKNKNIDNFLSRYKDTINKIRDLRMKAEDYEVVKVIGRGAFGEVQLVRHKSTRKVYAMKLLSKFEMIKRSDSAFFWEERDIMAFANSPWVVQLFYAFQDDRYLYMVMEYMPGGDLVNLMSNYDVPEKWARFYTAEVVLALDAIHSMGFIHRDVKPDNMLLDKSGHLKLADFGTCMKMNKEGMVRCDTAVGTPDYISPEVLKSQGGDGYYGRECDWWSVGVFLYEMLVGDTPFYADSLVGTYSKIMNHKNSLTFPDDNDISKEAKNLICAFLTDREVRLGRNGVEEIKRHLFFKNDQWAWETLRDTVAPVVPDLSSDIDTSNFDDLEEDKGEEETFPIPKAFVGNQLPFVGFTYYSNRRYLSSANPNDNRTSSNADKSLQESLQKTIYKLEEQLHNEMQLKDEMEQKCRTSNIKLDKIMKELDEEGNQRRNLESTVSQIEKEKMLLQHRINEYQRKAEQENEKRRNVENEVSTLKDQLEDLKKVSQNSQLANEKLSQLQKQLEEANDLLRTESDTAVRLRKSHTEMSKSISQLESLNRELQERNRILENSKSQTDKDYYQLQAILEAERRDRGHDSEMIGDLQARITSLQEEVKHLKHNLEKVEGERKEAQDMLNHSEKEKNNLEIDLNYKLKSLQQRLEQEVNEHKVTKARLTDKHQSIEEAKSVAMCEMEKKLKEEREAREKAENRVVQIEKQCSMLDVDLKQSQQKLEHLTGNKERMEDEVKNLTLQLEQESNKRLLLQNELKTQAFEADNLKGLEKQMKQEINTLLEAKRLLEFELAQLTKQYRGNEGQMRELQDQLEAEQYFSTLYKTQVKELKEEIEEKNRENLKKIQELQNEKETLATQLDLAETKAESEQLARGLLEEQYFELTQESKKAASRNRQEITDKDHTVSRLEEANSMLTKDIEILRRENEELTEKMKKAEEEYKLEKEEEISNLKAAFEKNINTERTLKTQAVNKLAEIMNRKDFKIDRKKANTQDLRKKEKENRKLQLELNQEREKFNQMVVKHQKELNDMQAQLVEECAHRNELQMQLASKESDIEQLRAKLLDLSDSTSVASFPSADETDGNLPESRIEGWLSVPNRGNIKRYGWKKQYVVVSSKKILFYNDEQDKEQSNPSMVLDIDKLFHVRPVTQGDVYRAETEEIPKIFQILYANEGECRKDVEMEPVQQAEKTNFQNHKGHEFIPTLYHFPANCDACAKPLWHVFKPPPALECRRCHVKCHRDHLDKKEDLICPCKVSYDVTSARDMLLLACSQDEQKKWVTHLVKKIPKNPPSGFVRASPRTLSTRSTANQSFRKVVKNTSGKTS

O=C(N[C@@H](C1CC1)C(F)(F)F)c1cc(-c2cnn3cc(-c4ccc(F)cc4)cnc23)cs1
fold change (FC) [1]: 0.59
fold change (FC) [2]: 0.53
fold change (FC) [3]: 0
fold change (FC) [4]: 0.18
fold change (FC) [5]: 0.03

CC(C)[C@H](NC(=O)c1cc(-c2cnn3cc(-c4ccc(OCCN5CCCCC5)cc4)cnc23)cs1)C(F)(F)F
inhibition [6]: 6%
fold change (FC) [7]: 0

CNC(=O)c1ccccc1Oc1nc(Nc2cc(OC)c(OC)c(OC)c2)ncc1Br
fold change (FC) [8]: 0.09
fold change (FC) [9]: 0.12
fold change (FC) [10]: 0.28
fold change (FC) [11]: 0.31
fold change (FC) [12]: 0
